This note sets out measurements from PMC13110849 (ACS chemical neuroscience, 2023).

In the experiment the target is RhoA•GMPPNP binding to ROCK1 (Homo sapiens, UniProt P61586). Kind of experiment: AlphaScreen assay of RhoA•GMPPNP binding to ROCK1. Particulars: varying concentration, 24 h, 4 °C.
Sequence of RhoA•GMPPNP binding to ROCK1 (P61586 whole entry): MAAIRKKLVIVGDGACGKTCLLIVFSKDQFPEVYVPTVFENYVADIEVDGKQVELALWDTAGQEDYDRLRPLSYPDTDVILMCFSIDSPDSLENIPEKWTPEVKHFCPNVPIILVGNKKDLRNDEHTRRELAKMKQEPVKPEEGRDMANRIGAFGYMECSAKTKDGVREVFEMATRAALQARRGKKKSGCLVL

Take `Nc1nc2c(ncn2[C@@H]2O[C@H](COP(=O)(O)OP(=O)(O)O)[C@@H](O)[C@H]2O)c(=O)[nH]1` [GDP]: the “Inhibition of RhoA•GMPPNP binding to ROCK1” value was “successfully inhibited”.
